This passage reports Kd results from ChEMBL document CHEMBL3407382, “Syntheses of chondroitin sulfate tetrasaccharide structures containing 4,6-disulfate patterns and analysis of their interaction with glycosaminoglycan-binding protein” (Bioorg Med Chem Lett, 2015).

Each structure is given as a SMILES string.

Sequence of Fibroblast growth factor 2 (P09038 143-288 limits assumed): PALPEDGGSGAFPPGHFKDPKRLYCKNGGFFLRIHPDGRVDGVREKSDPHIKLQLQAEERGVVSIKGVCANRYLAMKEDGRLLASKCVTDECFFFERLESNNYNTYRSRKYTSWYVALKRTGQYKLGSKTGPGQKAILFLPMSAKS

The first assay addresses Fibroblast growth factor 2 (Homo sapiens, UniProt P09038). Description: Binding affinity to FGF2 (unknown origin) assessed as change in luminance intensity at 25 degC by SPR imaging sensor method.
Conditions: not given; call rule not given here
Background: SPR reads the build-up and loss of mass on a sensor chip optically.
For orientation: Kd means the free concentration of one partner at which half of the binding sites on the other are occupied at equilibrium, for simple one-to-one binding. `CC(=O)N[C@H]1[C@H](O[C@H]2[C@H](O)[C@@H](OS(=O)(=O)O)[C@H](O[C@H]3[C@@H](O)[C@@H](COS(=O)(=O)O)O[C@@H](OC[C@@H](O)[C@@H](O)[C@H](O)[C@@H](O)CNc4cccc(NC(=O)CCCCC5CCSS5)c4)[C@@H]3NC(C)=O)O[C@@H]2C(=O)O)O[C@H](COS(=O)(=O)O)[C@H](O)[C@@H]1O[C@@H]1O[C@H](C(=O)O)[C@@H](O)[C@H](O)[C@H]1O` (stereo partly drawn): the Kd entry is listed as “Not Active”.
The same measure, in the same setting: the result for `CC(=O)N[C@H]1[C@H](OC[C@@H](O)[C@@H](O)[C@H](O)[C@@H](O)CNc2cccc(NC(=O)CCCCC3CCSS3)c2)O[C@H](COS(=O)(=O)[O-])[C@H](OS(=O)(=O)[O-])[C@@H]1O[C@@H]1O[C@H](C(=O)O)[C@@H](O[C@@H]2O[C@H](COS(=O)(=O)[O-])[C@H](O)[C@H](O[C@@H]3O[C@H](C(=O)O)[C@@H](O)[C@H](O)[C@H]3O)[C@H]2NC(C)=O)[C@H](O)[C@H]1O.[Na+].[Na+].[Na+]` (stereo partly drawn) reads “Not Active”.

The assay is the same for the next values; noted with them: read-out: Kd.
Take `CC(=O)N[C@H]1[C@H](OC[C@@H](O)[C@@H](O)[C@H](O)[C@@H](O)CNc2cccc(NC(=O)CCCCC3CCSS3)c2)O[C@H](COS(=O)(=O)O)[C@H](O)[C@@H]1O[C@@H]1O[C@H](C(=O)O)[C@@H](O[C@@H]2O[C@H](COS(=O)(=O)O)[C@H](O)[C@H](O[C@@H]3O[C@H](C(=O)O)[C@@H](O)[C@H](O)[C@H]3OS(=O)(=O)O)[C@H]2NC(C)=O)[C@H](O)[C@H]1OS(=O)(=O)O` (stereo partly drawn): the Kd came out at 48 nM.
The same measure, in the same setting: the result for `CC(=O)N[C@H]1[C@H](O[C@H]2[C@H](O)[C@@H](O)[C@H](O[C@H]3[C@@H](O)[C@@H](COS(=O)(=O)O)O[C@@H](OC[C@@H](O)[C@@H](O)[C@H](O)[C@@H](O)CNc4cccc(NC(=O)CCCCC5CCSS5)c4)[C@@H]3NC(C)=O)O[C@@H]2C(=O)O)O[C@H](COS(=O)(=O)O)[C@H](OS(=O)(=O)O)[C@@H]1O[C@@H]1O[C@H](C(=O)O)[C@@H](O)[C@H](O)[C@H]1O` (stereo partly drawn) reads 8.2 nM; that for `CC(=O)N[C@H]1[C@H](OCC(O)C(O)C(O)C(O)CNc2cccc(NC(=O)CCCCC3CCSS3)c2)O[C@H](COS(=O)(=O)O)[C@H](OS(=O)(=O)O)[C@@H]1O[C@@H]1O[C@H](C(=O)O)[C@@H](O[C@@H]2O[C@H](COS(=O)(=O)O)[C@H](O)[C@H](O[C@@H]3O[C@H](C(=O)O)[C@@H](O)[C@H](O)[C@H]3OS(=O)(=O)O)[C@H]2NC(C)=O)[C@H](O)[C@H]1OS(=O)(=O)O` (stereo partly drawn), 16 nM; that for `CC(=O)N[C@H]1[C@H](O[C@H]2[C@H](O)[C@@H](O)[C@H](O[C@@H]3[C@@H](NC(C)=O)[C@H](OC[C@@H](O)[C@@H](O)[C@H](O)[C@@H](O)CNc4cccc(NC(=O)CCCCC5CCSS5)c4)O[C@H](COS(=O)(=O)O)[C@@H]3OS(=O)(=O)O)O[C@@H]2C(=O)O)O[C@H](COS(=O)(=O)O)[C@H](OS(=O)(=O)O)[C@@H]1O[C@@H]1O[C@H](C(=O)O)[C@@H](O)[C@H](O)[C@H]1O` (stereo partly drawn), 5.2 nM.
Same read-out and setting: the result for `CC(=O)N[C@H]1[C@H](O[C@H]2[C@H](O)[C@@H](OS(=O)(=O)O)[C@H](O[C@H]3[C@@H](O)[C@@H](COS(=O)(=O)O)O[C@@H](OC[C@@H](O)[C@@H](O)[C@H](O)[C@@H](O)CNc4cccc(NC(=O)CCCCC5CCSS5)c4)[C@@H]3NC(C)=O)O[C@@H]2C(=O)O)O[C@H](COS(=O)(=O)O)[C@H](OS(=O)(=O)O)[C@@H]1O[C@@H]1O[C@H](C(=O)O)[C@@H](O)[C@H](O)[C@H]1O` (stereo partly drawn) reads 4.7 nM; that for `CC(=O)N[C@H]1[C@H](O[C@H]2[C@H](O)[C@@H](O)[C@H](O[C@@H]3[C@@H](NC(C)=O)[C@H](OC[C@@H](O)[C@@H](O)[C@H](O)[C@@H](O)CNc4cccc(NC(=O)CCCCC5CCSS5)c4)O[C@H](CO)[C@@H]3OS(=O)(=O)O)O[C@@H]2C(=O)O)O[C@H](COS(=O)(=O)O)[C@H](OS(=O)(=O)O)[C@@H]1O[C@@H]1O[C@H](C(=O)O)[C@@H](O)[C@H](O)[C@H]1O` (stereo partly drawn), 5.6 nM.
